{"source": "paper PMC8469090", "about": "(Pharmaceutics, 2021)", "tested_on": "cutaneous tumors (basal cell carcinoma, squamous cell carcinoma, melanoma, and others)", "assay": "Tumor response 2 months after electrochemotherapy (RECIST 1.1)", "conditions": "for tumor complete response rate 2 months after therapy: biopsied tumors, electrochemotherapy with i.v. bleomycin 15,000 IU/m^2; for Tumor Response (All Tumors): electrochemotherapy, 2 months, RECIST 1.1", "method": "All patients who presented with skin cancers, recurrent disease (and/or metastatic disease) or a second primary tumor in the head and neck region were either not suitable for conventional treatments or refused them. The patients were treated with electrochemotherapy at the Department of Otorhinolaryngology and Cervicofacial Surgery, University Medical Centre Ljubljana, Slovenia or the Department of Dermatology and Allergology, University of Szeged, Hungary. […] Treatment with electrochemotherapy was previously agreed upon by a multidisciplinary board, and written informed consent was obtained from all eligible patients. The selection of patients was performed according to the NICE guidelines. The included patients were older than 18 years and presented with different histologies of cutaneous tumors (basal cell carcinoma, squamous cell carcinoma, melanoma, and others). […] In the study, altogether 25 patients were included; 8 patients younger than 65 for blood sample collection, 4 patients younger than 65 for blood and tumor sample collection and 13 patients for tumor sample collection with no age limitation.\nElectrochemotherapy was performed according to the updated standard operating procedures [24]. […] Electric pulses for electrochemotherapy were generated by a Cliniporator pulse generator (IGEA, s.r.l., Carpi, Italy) and delivered by fixed geometry electrodes, i.e., mainly electrodes with eight needles arranged in two rows of four needles each with a distance of 4 mm between the rows. In one application of electric pulses, eight pulses with a voltage of 400 V, a pulse duration of 100 µs and a frequency of 5000 Hz were applied. The number of applications was adjusted to the size of the treated tumors.\nThe tumor volumes were calculated according to the SOP, i.e., a × b^2 × π/6. Tumor response 2 months after electrochemotherapy was evaluated with a clinical exam according to RECIST 1.1 criteria [25]."}
{"substance": "bleomycin", "values": [{"measurement": "tumor complete response rate 2 months after therapy", "setting": "BCC (8/9)", "value": 89, "unit": "%"}, {"measurement": "tumor complete response rate 2 months after therapy", "setting": "SCC (4/5)", "value": 80, "unit": "%"}, {"measurement": "Tumor Response (All Tumors)", "setting": "Table 3 patient 1 (BCC, 3 lesions, 24,000 IU)", "value": "1 CR, 2 PR"}, {"measurement": "Tumor Response (All Tumors)", "setting": "Table 3 patient 5 (BCC, 5 lesions, 27,000 IU)", "value": "4 CR, 1 SD"}, {"measurement": "Tumor Response (All Tumors)", "setting": "Table 3 patient 7 (BCC, 5 lesions, 24,000 IU)", "value": 5, "unit": "CR"}, {"measurement": "Tumor Response (All Tumors)", "setting": "Table 3 patient 11 * (SCC, 6 lesions, 30,000 IU)", "value": 6, "unit": "CR"}, {"measurement": "Tumor Response (All Tumors)", "setting": "Table 3 patient 15 * (Melanoma, 3 lesions, 29,100 IU)", "value": 3, "unit": "CR"}, {"measurement": "Tumor Response (All Tumors)", "setting": "Table 3 patient 17 (Porocarcinoma, 2 lesions, 29,850 IU)", "value": 2, "unit": "CR"}, {"measurement": "Tumor Response (All Tumors)", "setting": "Table 3 patient 19 (BCC, 16 lesions, 21,900 IU)", "value": "11 CR, 5 PR"}]}
